From patent publication EP4711356A1, “TETRAHYDROCARBAZOLE DERIVATIVE, PHARMACEUTICAL COMPOSITION, AND USE THEREOF” (Nain Biotech (Hangzhou) Co., Ltd., priority 2023, dated 2024) come the findings set out here.

Structures are written as SMILES. pIC50: −log10 of the molar value.

This assay relates to HeLa cells. As to the kind of experiment: Cell-based pharmacodynamic assay (CellTiter-Glo proliferation inhibition), HeLa. The settings on record: human cervical cancer HeLa cells; 72 hours incubation; CellTiter-Glo luminescence; read-out: IC50 against HeLa cells. Here is the method: Complete media such as RPMI 1640 (Gibco, A1049101), EMEM (ATCC, 30-2003), DMEM (Gibco, C11995500CP), McCoy's 5A (Gibco, 16600082), and F-12K (ATCC, 30-2004) were prepared by supplementing with varying concentrations of FBS (Biological Industries, 04-002-1A) and 1% Penicillin-Streptomycin (Gibco, 15140122) and was thoroughly mixed. Tumor cell lines including HeLa (ATCC, CCL-2; EMEM + 10% FBS), TOV-21G (Cobioer, CBP60292; 1:1 mixture of MCDB 105 and Medium 199 + 15% FBS), OVCAR-3 (ATCC, HTB-161; RPMI 1640 + 20% FBS + 0.01 mg/ml bovine insulin), SK-OV-3 (ATCC, HTB-77; McCoy's 5A + 10% FBS), A2780 (Cobioer, CBP60283; RPMI 1640 + 10% FBS), OC316 (Cobioer, CBP60620; RPMI 1640 + 10% FBS), HuH-7 (Cobioer, CBP60202; DMEM + 10% FBS), SNU-398 (ATCC, CRL-2233; RPMI 1640 + 10% FBS), NCI-H2286 (ATCC, CRL-5938; RPMI 1640 + 5% FBS), NCI-H82 (ATCC, HTB-175; RPMI 1640 + 10% FBS), A549 (ATCC, CCL-185; F-12K + 10% FBS), SK-MEL-3 (ATCC, HTB-69; McCoy's 5A + 15% FBS), PSN-1 (Cobioer, CBP61215; RPMI 1640 + 10% FBS), LoVo (ATCC, CCL-229; F-12K + 10% FBS), DLD-1 (ATCC, CCL-221; RPMI 1640 + 10% FBS), HCT-15 (ATCC, CCL-225; RPMI 1640 + 10% FBS), A498 (ATCC, HTB-44; EMEM + 10% FBS), LNCaP (ATCC, CRL-1740; RPMI 1640 + 10% FBS), SNU-1 (ATCC, CRL-5971; RPMI 1640 + 10% FBS), SCC-9 (Cobioer, CBP60428; DMEM/F12 (1:1) + 10% FBS + 0.5 mM sodium pyruvate + 400 ng/ml hydrocortisone), SU-DHL-5 (ATCC, CRL-2958; RPMI 1640 + 10% FBS), Toledo (ATCC, CRL-2631; RPMI 1640 + 10% FBS), and SJCRH30 (ATCC, CRL-2061; RPMI 1640 + 10% FBS) were thawed. Cells were passaged approximately twice, and those in good growth condition (typically passages 4-6) were selected for experiments. The medium was aspirated, and the cells were washed once with 0.25% trypsin (Invitrogen, 25200-072). The waste liquid was discarded, and 3 mL of fresh trypsin was added to the culture flask for digestion. When the cells began to detach, 9 mL of complete medium was added to neutralize the trypsin digestion, and the mixture was gently mixed. The cell suspension was transferred to a centrifuge tube using a pipette and centrifuged at 1000 rpm for 5 minutes. The supernatant was discarded, and 5 mL of medium was added to the centrifuge tube to gently resuspend the cells evenly. The cell concentration was adjusted to 1×10^4/mL-3×10^4/mL using a cell counter (Beckman Coulter, Vi-cellTM XR). The cell suspension was added to a 96-well plate (Corning, 3903) at 100 µL/well. The plate was labeled with details such as cell name, seeding density, and date, and then placed in a CO2 incubator (Thermo, Thermo 3111) overnight. Test compounds were prepared as 20 mM stock solutions in DMSO (Sigma, D4540-1L) and added to the corresponding cell wells using an HPD300 automated dispenser according to the designed layout. The plates were incubated in a 37°C, 5% CO2 incubator for 72 hours. CellTiter-Glo Buffer was thawed at room temperature. The lyophilized CellTiter-Glo substrate was equilibrated to room temperature. The CellTiter-Glo Buffer was added to the CellTiter-Glo substrate and thoroughly mixed. The cell plates were removed and equilibrated to room temperature, and 50 µL of the mixed CellTiter-Glo reagent was added to each well. The plates were protected from light and shaken for 10 minutes, followed by incubation for 10 minutes. The plates were placed in an Enspire reader (luminescence measurement time: 0.5 s) to record luminescence results. The inhibition rate was calculated using the following formula: Inhibition rate (%) = (1 - (RLU_compound - RLU_blank) / (RLU_DMSO - RLU_blank)) × 100%. Dose-response curves were plotted using XLFit to calculate IC50 values. A four-parameter model was used: [fit = (A + ((B - A) / (1 + ((C/x) ^ D)))]. The test results for HeLa cells are shown in Table 1. Table 1: IC50 values of some test compounds against human cervical cancer HeLa cells
(Cellular ATP, detected with luciferase, serves as a proxy for viable cell number.)
What is called pIC50 is the negative decadic logarithm of the IC50, by convention in mol/L. Consider `CCOC(=O)c1cccc2c1c1c(n2C(=O)CCCCCO)C(=O)CCC1` [Compound C55], for which the negative-log IC50 (pIC50) was at least 6.70.

With `Cc1ccc2[nH]c3c(c2c1)CCCC3=NC(CC(N)=O)C(=O)OC(C)(C)C` (centres unmarked) [Compound E39], the pIC50 was at least 6.70.

As for `Cc1ccc2[nH]c3c(c2c1)C(C)CCC3=NCCO` (single isomer, unassigned) [Compound E41], the pIC50 is at least 6.30. With `CCCCOC(=O)c1cccc2[nH]c3c(c12)CCCC3=O` [Compound B25], the pIC50 was at least 6.70. Take `O=C1CCCc2c1[nH]c1cccc(C(=O)OC(CF)CF)c21` [Compound B42]: the negative logarithm of the IC50 (pIC50) was at least 6.70. In the case of `CN(C)c1cccc2[nH]c3c(c12)CCCC3=O` [Compound B65], the negative-log IC50 (pIC50) is at least 6.70.

With `COC(=O)c1cccc2[nH]c3c(c12)CCCC3=NC(CO)C(C)C` (racemic) [Compound E60], the negative logarithm of the IC50 (pIC50) is at least 6.70.

For `CCOC(=O)c1cccc2c1c1c(n2C(=O)C2OC2C)C(=O)CCC1` (centres unmarked) [Compound C30], the pIC50 is at least 6.70. As for `CC(O)CCCOC(=O)c1cccc2[nH]c3c(c12)CCCC3=O` (racemic) [Compound B142], the negative logarithm of the IC50 (pIC50) is at least 6.70.

On to `CCC(CO)N=C1CCCc2c1[nH]c1ccc(C)cc21` (centres unmarked) [Compound E64], for which the negative logarithm of the IC50 (pIC50) is at least 6.30. On to `COC(=O)c1ccc2[nH]c3c(c2c1)CCCC3=NCC(=O)OC(C)(C)C` [Compound E34], for which the pIC50 is at least 6.70.

Take `CCC(CO)N=C1CCCc2c1[nH]c1ccc(C)cc21` (centres unmarked) [Compound E63]: the pIC50 was at least 6.30. For the compound `CC(OC(=O)c1cccc2[nH]c3c(c12)CCCC3=O)C(F)(F)F` (racemic) [Compound B44], the negative logarithm of the IC50 (pIC50) was at least 6.70. As for `CC(C)OC(=O)c1cccc2[nH]c3c(c12)CCCC3=O` [Compound B17], the figure is at least 6.70. Take `CCCCNC1CCc2c([nH]c3cccc(C(=O)OCC)c23)C1=O` (racemic) [Compound B103]: the negative-log IC50 (pIC50) is at least 6.70. With `Cc1ccc2[nH]c3c(c2c1)CCCC3=NC1CCN(CC(F)(F)F)CC1` [Compound E42], the negative logarithm of the IC50 (pIC50) is at least 6.70. For the compound `COC(=O)c1cccc2[nH]c3c(c12)CCCC3=O` [Compound B10], the pIC50 was at least 6.70. As to `CC(OC(=O)c1cccc2[nH]c3c(c12)CCCC3=O)C(=O)N(C)C` (racemic) [Compound B37], the pIC50 was at least 6.00. Consider `[2H]C([2H])([2H])n1cc(-c2cccc3[nH]c4c(c23)CCCC4=O)cn1` [Compound B191], for which the pIC50 was at least 6.70. In the case of `O=C1CCCc2c1[nH]c1cccc(C(=O)OCCC(F)(F)F)c21` [Compound B45], the pIC50 is at least 6.70. As for `O=C1CCCc2c1[nH]c1cccc(C(=O)Oc3cccc4[nH]ncc34)c21` [Compound B166], the figure is at least 6.30; as for `CCOC(=O)c1cccc2c1c1c(n2C(=O)c2ccc(F)cc2)C(=O)CCC1` [Compound C19], at least 6.70; as for `COC(=O)c1cccc2[nH]c3c(c12)CCCC3=NC(C)C` [Compound E47], at least 6.70.

In the case of `CCOC(=O)c1c(Cl)ccc2[nH]c3c(c12)CCCC3=O` [Compound B118], the negative-log IC50 (pIC50) is at least 6.70. With `CCOC(=O)c1cccc2c1c1c(n2C(=O)CC2CCOCC2)C(=O)CCC1` [Compound C35], the pIC50 is at least 6.70.

Regarding `COC(=O)c1c(OC)ccc2[nH]c3c(c12)CCCC3=O` [Compound B91], the pIC50 is at least 6.70.

For the compound `O=C1CCCc2c1[nH]c1cccc(C(=O)OC(CO)CO)c21` [Compound B149], the pIC50 is at least 6.70. Take `CCC(CO)N=C1CCCc2c1[nH]c1cccc(C(=O)OC)c21` (racemic) [Compound E58]: the negative-log IC50 (pIC50) was at least 6.70. For the compound `Cc1ccc2[nH]c3c(c2c1)CCCC3=NC(C)C(=O)OC(C)(C)C` (centres unmarked) [Compound E44], the pIC50 is at least 6.30.

Take `CCOC(=O)c1cccc2c1c1c(n2C(=O)c2ccccc2OC)C(=O)CCC1` [Compound C25]: the negative-log IC50 (pIC50) was at least 6.70. Take `CN=C1CCCc2c1[nH]c1cccc(C(=O)OC)c21` [Compound E72]: the pIC50 is at least 6.70. Take `COCCOC1CCC(N=C2CCCc3c2[nH]c2ccc(C)cc32)CC1` (centres unmarked) [Compound E46]: the negative logarithm of the IC50 (pIC50) is at least 6.70.
